Values of other authors in US20080153738A1, “COMPOSITIONS AND METHODS FOR TREATMENT OF HYPERPLASIA” (priority 1997, published 2008).

System: in-stent restenosis in porcine coronary arteries

Structure (SMILES): CC(=O)O[C@H]1C(=O)[C@@]2(C)[C@H]([C@H](OC(=O)c3ccccc3)[C@]3(O)C[C@H](OC(=O)[C@H](O)[C@@H](NC(=O)c4ccccc4)c4ccccc4)C(C)=C1C3(C)C)[C@]1(OC(C)=O)CO[C@@H]1C[C@@H]2O [paclitaxel, Paclitaxel]
- neointimal area (90 μg paclitaxel stents): significant reduction in neointimal area
- Lumen area (15 and 90 μg paclitaxel stents, directly applied without polymer): Lumen area was increased
- local cytotoxic effects (stents coated with 90 μg of paclitaxel): significant local cytotoxic effects were observed
- diameter stenosis and neointimal area (stents coated with biodegradable polymer, slow-release paclitaxel 175-200 μg/stent, 4 weeks): reduction in diameter stenosis and neointimal area
